# Patent publication US9481670B2, “Triazine compounds” (Sphaera Pharma PTE. Ltd., priority 2011, dated 2016)
# Target: T1, PI3K alpha (Homo sapiens, UniProt P42336)
# T1 construct: purchased Millipore Upstate
# Test: P110 Alpha TR-FRET Assay (PI3K alpha kinase assay, HTRF Transcreener ADP Assay)
# Type: biochemical
# Details: PI3K (WT)
# Summary of the method: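 HTRF Transcreener ADP read-out of ADP formed by PI3K (50 ng enzyme) in 50 mM HEPES pH 7.5, 5 mM MgCl2, 1 mM DTT, 30 μM Na3VO4. Compound preincubated with enzyme 20 min; reaction started with 10 μM ATP and 5 μM PIP2, run 20 min, then ADP-d2/anti-ADP cryptate detection for 1 h.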
# T1 sequence (P42336 whole entry): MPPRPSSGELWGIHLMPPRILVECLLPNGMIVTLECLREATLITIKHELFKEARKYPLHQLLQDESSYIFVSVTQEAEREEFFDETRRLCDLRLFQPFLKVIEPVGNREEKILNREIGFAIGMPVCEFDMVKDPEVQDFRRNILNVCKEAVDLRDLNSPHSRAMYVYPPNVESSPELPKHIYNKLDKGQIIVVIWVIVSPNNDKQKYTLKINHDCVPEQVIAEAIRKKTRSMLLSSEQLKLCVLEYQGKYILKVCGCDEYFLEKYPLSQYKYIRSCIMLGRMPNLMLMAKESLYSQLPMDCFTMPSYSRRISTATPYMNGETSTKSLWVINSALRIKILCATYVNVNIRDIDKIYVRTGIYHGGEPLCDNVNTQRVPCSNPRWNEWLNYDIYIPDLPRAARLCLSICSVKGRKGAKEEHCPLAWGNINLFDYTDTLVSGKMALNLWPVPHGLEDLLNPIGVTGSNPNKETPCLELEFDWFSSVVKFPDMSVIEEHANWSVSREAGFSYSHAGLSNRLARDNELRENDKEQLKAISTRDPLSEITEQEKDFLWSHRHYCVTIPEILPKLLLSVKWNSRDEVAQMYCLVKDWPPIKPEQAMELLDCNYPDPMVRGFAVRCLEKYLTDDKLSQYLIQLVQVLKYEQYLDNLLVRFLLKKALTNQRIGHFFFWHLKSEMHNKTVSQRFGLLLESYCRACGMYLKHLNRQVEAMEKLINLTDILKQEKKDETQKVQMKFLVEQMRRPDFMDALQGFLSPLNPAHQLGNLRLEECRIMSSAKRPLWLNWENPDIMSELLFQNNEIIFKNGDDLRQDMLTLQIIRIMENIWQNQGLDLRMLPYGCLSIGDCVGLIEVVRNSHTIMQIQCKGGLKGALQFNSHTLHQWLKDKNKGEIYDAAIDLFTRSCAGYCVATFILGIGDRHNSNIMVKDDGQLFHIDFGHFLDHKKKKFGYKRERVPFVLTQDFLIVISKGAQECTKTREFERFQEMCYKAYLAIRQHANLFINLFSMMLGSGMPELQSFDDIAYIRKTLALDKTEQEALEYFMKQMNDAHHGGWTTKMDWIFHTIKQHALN
# T1 sequence (P27986 whole entry partner): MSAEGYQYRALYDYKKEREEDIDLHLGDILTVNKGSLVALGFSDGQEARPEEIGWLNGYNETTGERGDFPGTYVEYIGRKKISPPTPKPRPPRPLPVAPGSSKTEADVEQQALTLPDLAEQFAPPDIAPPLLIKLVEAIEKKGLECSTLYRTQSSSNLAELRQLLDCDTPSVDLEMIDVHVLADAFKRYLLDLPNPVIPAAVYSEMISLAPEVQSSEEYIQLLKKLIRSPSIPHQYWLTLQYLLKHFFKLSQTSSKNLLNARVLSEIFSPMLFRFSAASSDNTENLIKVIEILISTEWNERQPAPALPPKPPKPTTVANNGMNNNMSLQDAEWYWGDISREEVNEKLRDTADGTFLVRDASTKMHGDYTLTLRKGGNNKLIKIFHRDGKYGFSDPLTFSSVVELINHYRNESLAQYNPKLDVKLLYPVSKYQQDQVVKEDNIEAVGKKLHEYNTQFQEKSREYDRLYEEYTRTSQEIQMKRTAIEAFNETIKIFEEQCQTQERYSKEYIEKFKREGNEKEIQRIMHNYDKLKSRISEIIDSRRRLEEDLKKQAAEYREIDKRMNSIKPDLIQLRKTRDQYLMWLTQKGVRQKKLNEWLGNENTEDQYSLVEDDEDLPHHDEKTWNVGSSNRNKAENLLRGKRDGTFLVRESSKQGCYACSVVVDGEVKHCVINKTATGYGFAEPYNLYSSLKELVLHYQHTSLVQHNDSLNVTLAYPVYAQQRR
row,IC50 [µM],Compound
1,> 5,"O=C(O)CNc1nc(-c2cccc([N+](=O)[O-])c2)nc(N2CCOCC2)n1 [Compound 1169, 2-((4-morpholino-6-(3-nitrophenyl)-1,3,5-triazin-2-yl)amino)acetic acid]"
2,< 5,"O=C(c1cccc(Nc2nc(-c3cccc4[nH]ncc34)nc(N3CCOCC3)n2)c1)N1CCNCC1 [Compound 1171, (3-((4-(1H-indazol-4-yl)-6-morpholino-1,3,5-triazin-2-yl)amino)phenyl)(piperazin-1-yl)methanone]"
3,< 5,"CN1CCN(C(=O)c2cccc(Nc3nc(-c4cccc5[nH]ncc45)nc(N4CCOCC4)n3)c2)CC1 [Compound 1172, (3-((4-(1H-indazol-4-yl)-6-morpholino-1,3,5-triazin-2-yl)amino)phenyl)(4-methylpiperazin-1-yl)methanone]"
4,< 5,"O=C(c1cccc(Nc2nc(-c3cccc4[nH]ncc34)nc(N3CCOCC3)n2)c1)N1CCOCC1 [Compound 1173, (3-((4-(1H-indazol-4-yl)-6-morpholino-1,3,5-triazin-2-yl)amino)phenyl)(morpholino)methanone]"
5,< 5,"CCOc1ccc(NC(=O)C2CCN(c3nc(-c4cccc5[nH]ncc45)nc(N4CCOCC4)n3)C2)cc1 (centres unmarked) [Compound 1174, N-(4-23-ethoxyphenyl)-1-12-[4-1-(1H-indazol-4-yl)-6-5-(morpholin-4-yl)-1,3,5-triazin-2-yl]pyrrolidine-3-carboxamide]"
6,< 5,"CC(C)C(Nc1nc(-c2cccc(O)c2)nc(N2CCOCC2)n1)C(=O)O (centres unmarked) [Compound 1175, 2-((4-(3-hydroxyphenyl)-6-morpholino-1,3,5-triazin-2-yl)amino)-3-methylbutanoic acid]"
7,> 5,"O=C(O)CNc1nc(-c2ccc(O)nc2)nc(N2CCOCC2)n1 [Compound 1176, 2-((4-(6-hydroxypyridin-3-yl)-6-morpholino-1,3,5-triazin-2-yl)amino)acetic acid]"
8,< 5,"CNC(=O)c1ccc(C)c(Nc2nc(-c3cccc4[nH]ncc34)nc(N3CCOCC3)n2)c1 [Compound 1177, 3-((4-(1H-indazol-4-yl)-6-morpholino-1,3,5-triazin-2-yl)amino)-N,4-dimethylbenzamide]"
9,< 5,"Cc1ccc(C(=O)N(C)C)cc1Nc1nc(-c2cccc3[nH]ncc23)nc(N2CCOCC2)n1 [Compound 1178, 3-((4-(1H-indazol-4-yl)-6-morpholino-1,3,5-triazin-2-yl)amino)-N,N,4-trimethylbenzamide]"
10,> 5,"O=C(O)CNc1nc(-c2ccc(F)nc2)nc(N2CCOCC2)n1 [Compound 1179, 2-((4-(6-fluoropyridin-3-yl)-6-morpholino-1,3,5-triazin-2-yl)amino)acetic acid]"
11,< 5,"CN(C)C(=O)N1CCN(Cc2nc(-c3cccc4[nH]ncc34)nc(N3CCOCC3)n2)CC1 [Compound 1180, 4-((4-(1H-1-indazol-4-yl)-6-morpholino-1,3,5-triazin-2-yl)methyl)-N,N-dimethylpiperazine-1-carboxamide]"
12,< 5,"NC(=O)CNc1nc(-c2cccc(O)c2)nc(N2CCOCC2)n1 [Compound 1181, 2-((4-(3-hydroxyphenyl)-6-morpholino-1,3,5-triazin-2-yl)amino)acetamide]"
13,< 5,"NC(=O)c1cccn1-c1nc(-c2cccc3[nH]ncc23)nc(N2CCOCC2)n1 [Compound 1182, 1-8-[4-1-(1H-indazol-4-yl)-6-5-(morpholin-4-yl)-1,3,5-triazin-2-yl]-1H-pyrrole-2-carboxamide]"
14,> 5,"COc1cccc(-c2nc(NCC(=O)O)nc(N3CCOCC3)n2)c1 [Compound 1183, 2-((4-(3-methoxyphenyl)-6-morpholino-1,3,5-triazin-2-yl)amino)acetic acid]"
15,> 5,"O=C(O)CNc1nc(-c2cccc(NO)c2)nc(N2CCOCC2)n1 [Compound 1184, 2-((4-(3-(hydroxyamino)phenyl)-6-morpholino-1,3,5-triazin-2-yl)amino)acetic acid]"
16,> 5,"CN(C)C(=O)CNc1nc(-c2ccc(N)cc2)nc(N2CCOCC2)n1 [Compound 1185, 2-((4-(4-aminophenyl)-6-morpholino-1,3,5-triazin-2-yl)amino)-N,N-dimethylacetamide]"
17,< 5,"Cc1c(Nc2nc(-c3cccc4[nH]ncc34)nc(N3CCOCC3)n2)cccc1C(N)=O [Compound 1186, 3-((4-(1H-indazol-4-yl)-6-morpholino-1,3,5-triazin-2-yl)amino)-2-methylbenzamide]"
18,< 5,"CC(Nc1nc(-c2cccc(O)c2)nc(N2CCOCC2)n1)C(=O)O (centres unmarked) [Compound 1187, 2-((4-(3-hydroxyphenyl)-6-morpholino-1,3,5-triazin-2-yl)amino)propanoic acid]"
19,< 5,"CC(C)(Nc1nc(-c2cccc(O)c2)nc(N2CCOCC2)n1)C(=O)O [Compound 1188, 2-((4-(3-hydroxyphenyl)-6-morpholino-1,3,5-triazin-2-yl)amino)-2-methylpropanoic acid]"

row,IC50 [µM],Compound
1,< 5,"CN(C)C(=O)c1cccc(Nc2nc(-c3cccc4[nH]ncc34)nc(N3CCOCC3)n2)c1 [Compound 1190, 3-((4-(1H-indazol-4-yl)-6-morpholino-1,3,5-triazin-2-yl)amino)-N,N-dimethylbenzamide]"
2,< 5,"CS(=O)(=O)N1CCN(C(=O)CCNc2nc(-c3cccc4[nH]ncc34)nc(N3CCOCC3)n2)CC1 [Compound 1191, 3-((4-(1H-indazol-4-yl)-6-morpholino-1,3,5-triazin-2-yl)amino)-1-(4-(methylsulfonyl)piperazin-1-yl)propan-1-one]"
3,< 5,"CN(CC(=O)O)c1nc(-c2cccc(O)c2)nc(N2CCOCC2)n1 [Compound 1192, 2-((4-(3-hydroxyphenyl)-6-morpholino-1,3,5-triazin-2-yl)(methyl)amino)acetic acid]"
4,< 5,"NC(=O)Cc1ccccc1Nc1nc(-c2cccc3[nH]ncc23)nc(N2CCOCC2)n1 [Compound 1194, 2-(2-((4-(1H-indazol-4-yl)-6-morpholino-1,3,5-triazin-2-yl)amino)phenyl)acetamide]"
5,< 5,"NC(=O)Cc1cccc(Nc2nc(-c3cccc4[nH]ncc34)nc(N3CCOCC3)n2)c1 [Compound 1195, 2-(3-((4-(1H-indazol-4-yl)-6-morpholino-1,3,5-triazin-2-yl)amino)phenyl)acetamide]"
6,< 5,"O=C1NCC2CN(c3nc(-c4cccc5[nH]ncc45)nc(N4CCOCC4)n3)CCC12 (centres unmarked) [Compound 1196, 5-8-[4-1-(1H-indazol-4-yl)-6-5-(morpholin-4-yl)-1,3,5-triazin-2-yl]-octahydro-1H-pyrrolo[3,4-c]pyridin-1-one]"
7,< 5,"COC(=O)CNc1nc(-c2cccc(N)c2)nc(N2CCOCC2)n1 [Compound 1197, methyl 2-((4-(3-aminophenyl)-6-morpholino-1,3,5-triazin-2-yl)amino)acetate]"
8,> 5,"NC(=O)c1ccccc1Nc1nc(-c2cccc3[nH]ncc23)nc(N2CCOCC2)n1 [Compound 1198, 2-((4-(1H-indazol-4-yl)-6-morpholino-1,3,5-triazin-2-yl)amino)benzamide]"
9,> 5,"Nc1cccc(-c2nc(NCC(=O)O)nc(N3CCOCC3)n2)c1 [Compound 1199, 2-((4-(3-aminophenyl)-6-morpholino-1,3,5-triazin-2-yl)amino)acetic acid]"
10,< 5,"CN(c1cccc(C(N)=O)c1)c1nc(-c2cccc3[nH]ncc23)nc(N2CCOCC2)n1 [Compound 1200, 3-((4-(1H-indazol-4-yl)-6-morpholino-1,3,5-triazin-2-yl)(methyl)amino)benzamide]"
11,< 5,"NC(=O)c1cccc(Nc2nc(-c3cccc4[nH]ncc34)nc(N3CCOCC3)n2)c1 [Compound 1201, 3-((4-(1H-indazol-4-yl)-6-morpholino-1,3,5-triazin-2-yl)amino)benzamide]"
12,< 5,"O=C(O)c1cccc(Nc2nc(-c3cccc4[nH]ncc34)nc(N3CCOCC3)n2)c1 [Compound 1202, 3-((4-(1H-indazol-4-yl)-6-morpholino-1,3,5-triazin-2-yl)amino)benzoic acid]"
13,> 5,"O=C(O)CNc1nc(-c2ccccc2)nc(N2CCOCC2)n1 [Compound 1203, 2-((4-morpholino-6-phenyl-1,3,5-triazin-2-yl)amino)acetic acid]"
14,< 5,"CN(C)C(=O)c1ccc(Nc2nc(-c3cccc4[nH]ncc34)nc(N3CCOCC3)n2)cc1 [Compound 1204, 4-((4-(1H-indazol-4-yl)-6-morpholino-1,3,5-triazin-2-yl)amino)-N,N-dimethylbenzamide]"
15,< 5,"c1cc(Nc2nc(-c3cccc4[nH]ncc34)nc(N3CCOCC3)n2)c2cn[nH]c2c1 [Compound 1205, N-(4-(1H-indazol-4-yl)-6-morpholino-1,3,5-triazin-2-yl)-1H-indazol-4-amine]"
16,< 5,"O=C1CCN(c2nc(-c3cccc4[nH]ncc34)nc(N3CCOCC3)n2)CCN1 [Compound 1206, 1-21-[4-1-(1H-indazol-4-yl)-6-5-(morpholin-4-yl)-1,3,5-triazin-2-yl]-1,4-diazepan-5-one]"
17,< 5,"COC(=O)C1CCN(c2nc(-c3cccc4[nH]ncc34)nc(N3CCOCC3)n2)C1 (centres unmarked) [Compound 1207, methyl 1-12-[4-1-(1H-indazol-4-yl)-6-5-(morpholin-4-yl)-1,3,5-triazin-2-yl]pyrrolidine-3-carboxylate]"
18,< 5,"ON=C1CCN(c2nc(-c3cccc4[nH]ncc34)nc(N3CCOCC3)n2)CC1 [Compound 1208, N-{1-8-[4-1-(1H-indazol-4-yl)-6-5-(morpholin-4-yl)-1,3,5-triazin-2-yl]piperidin-4-ylidene}hydroxylamine]"
19,< 5,"CN(C)C(=O)C(Cc1ccccc1)Nc1nc(-c2cccc3[nH]ncc23)nc(N2CCOCC2)n1 (centres unmarked) [Compound 1209, 2-((4-(1H-indazol-4-yl)-6-morpholino-1,3,5-triazin-2-yl)amino)-N,N-dimethyl-3-phenylpropanamide]"
